Results as given in patent publication US8163909B2, “Substituted hydroxyethyl amine compounds as beta-secretase modulators and methods of use” (Amgen Inc., priority 2007, dated 2012).
pIC50: −log10 of the molar value. Read-outs that look alike come from different tables or passages of the source.

Experiments:
[1] = target: Beta Secretase enzyme (BACE) (Homo sapiens, UniProt P56817); experiment: In vitro enzymatic BACE FRET (fluorescence resonance energy transfer) assay; assay type: biochemical; conditions: for IC50: IC50's in uM;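 on all read-outs here: fluorescence read after 1 h with 50 nM quenched peptide substrate spanning the BACE cleavage site, in pH 4.2 acetate buffer containing 10% DMSO and nonionic detergent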
[2] = system: Aβ40 in conditioned medium of cells stably expressing Amyloid Precursor Protein (APP); experiment: In vitro BACE cell-based assay (Aβ40 in conditioned medium, sandwich ELISA); conditions: Homo sapiens; for IC50: IC50's in uM;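 on all read-outs here: compounds added as a dilution series, secreted peptide quantified by europium time-resolved fluorescence readout, potency fitted from percent of control versus compound concentration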
Abeta peptide = experiment: In vivo inhibition of beta-secretase (reduction of Abeta peptide in brain and cerebrospinal fluid); parameters: species or system rat; conditions: Rattus norvegicus, po, 4 h;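 further: abeta peptide quantified by sandwich ELISA with electrochemiluminescence readout in rat brain supernatant or CSF, relative to vehicle-dosed control animals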
CYP3A4 (CYP3A) = CYP3A4 (CYP3A) (Homo sapiens, UniProt P08684); experiment: in vitro; conditions: microsomes, pH 7.4;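 further: inhibition of CYP3A-mediated 1-hydroxymidazolam formation after 10 min incubation with NADPH, quantified by HPLC MS relative to metabolite produced without test compound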
[3] = Microsomal stability assay, rat liver microsomes;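 further: rat liver microsomes (0.25 mg/mL) with about 1 µM compound plus 1 mM NADPH, pH 7.4, 37 °C for 30 min, parent left measured by LC-MS/MS against 0 min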
[4] = Microsomal stability assay, human liver microsomes;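 further: pooled human liver microsomes at 0.25 mg/mL with 1 µM compound and NADPH at 37 °C, pH 7.4, for 30 min, unchanged parent quantified by LC-MS/MS against the 0 min sample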
CYP2D6 = CYP2D6 (Homo sapiens, UniProt P10635); experiment: CYP2D6 inhibition assay (bufuralol, pooled human liver microsomes); conditions: for IC50: 2D6 IC50 (uM)
[5] = BACE enzyme assay, read-out: BACE1 FRET assay
[6] = HEK293, cell-based assay, HEK cells, read-out: HEK cell assay
[7] = rat brain, orally administered at 30 mg/kg dose, measured after 4 hours, read-out: percent reduction of abeta peptide in the brain of the rat
[8] = rat cerebrospinal fluid, orally administered at 30 mg/kg dose, measured after 4 hours, read-out: percent reduction of abeta peptide in the cerebrospinal fluid of the rat
[9] = 2D6 IC50, CYP enzyme inhibition
[10] = BACE enzyme assay IC50, read-out: BACE1 FRET assay
[11] = HEK293, HEK cell-based assay IC50, read-out: HEK cell assay
[12] = HEK293, HEK cell-based assay, read-out: HEK cell assay
[13] = read-out: BACE1 FRET assay (IC50)
[14] = HEK293, HEK cells, read-out: HEK cell assay (IC50)

Chain of Beta Secretase enzyme (BACE) (P56817 46-501): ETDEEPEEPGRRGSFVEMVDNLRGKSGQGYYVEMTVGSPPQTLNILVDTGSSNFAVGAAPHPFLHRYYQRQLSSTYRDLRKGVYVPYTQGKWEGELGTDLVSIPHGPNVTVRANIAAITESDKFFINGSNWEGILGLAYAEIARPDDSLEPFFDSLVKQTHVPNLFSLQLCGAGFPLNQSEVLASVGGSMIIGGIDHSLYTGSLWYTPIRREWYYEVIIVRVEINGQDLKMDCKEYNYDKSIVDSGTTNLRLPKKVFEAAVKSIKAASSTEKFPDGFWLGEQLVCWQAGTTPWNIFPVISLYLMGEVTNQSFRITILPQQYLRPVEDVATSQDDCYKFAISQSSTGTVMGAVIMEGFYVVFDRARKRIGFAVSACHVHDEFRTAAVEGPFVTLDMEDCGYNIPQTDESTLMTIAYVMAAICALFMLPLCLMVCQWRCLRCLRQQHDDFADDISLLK
Chain of CYP3A4 (CYP3A) (P08684 2-503): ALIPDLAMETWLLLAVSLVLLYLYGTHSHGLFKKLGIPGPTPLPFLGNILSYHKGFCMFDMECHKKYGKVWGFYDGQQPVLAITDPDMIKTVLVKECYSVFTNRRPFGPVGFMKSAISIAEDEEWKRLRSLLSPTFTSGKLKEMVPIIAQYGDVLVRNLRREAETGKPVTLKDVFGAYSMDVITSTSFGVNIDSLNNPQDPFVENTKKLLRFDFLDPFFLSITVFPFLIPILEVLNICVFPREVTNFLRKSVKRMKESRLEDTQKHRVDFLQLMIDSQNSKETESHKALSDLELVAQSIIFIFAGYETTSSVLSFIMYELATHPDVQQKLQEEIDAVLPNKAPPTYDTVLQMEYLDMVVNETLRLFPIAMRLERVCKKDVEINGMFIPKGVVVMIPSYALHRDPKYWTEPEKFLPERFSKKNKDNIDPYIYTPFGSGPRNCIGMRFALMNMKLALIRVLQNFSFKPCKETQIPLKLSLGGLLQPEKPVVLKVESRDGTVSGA
Chain of CYP2D6 (P10635 whole entry): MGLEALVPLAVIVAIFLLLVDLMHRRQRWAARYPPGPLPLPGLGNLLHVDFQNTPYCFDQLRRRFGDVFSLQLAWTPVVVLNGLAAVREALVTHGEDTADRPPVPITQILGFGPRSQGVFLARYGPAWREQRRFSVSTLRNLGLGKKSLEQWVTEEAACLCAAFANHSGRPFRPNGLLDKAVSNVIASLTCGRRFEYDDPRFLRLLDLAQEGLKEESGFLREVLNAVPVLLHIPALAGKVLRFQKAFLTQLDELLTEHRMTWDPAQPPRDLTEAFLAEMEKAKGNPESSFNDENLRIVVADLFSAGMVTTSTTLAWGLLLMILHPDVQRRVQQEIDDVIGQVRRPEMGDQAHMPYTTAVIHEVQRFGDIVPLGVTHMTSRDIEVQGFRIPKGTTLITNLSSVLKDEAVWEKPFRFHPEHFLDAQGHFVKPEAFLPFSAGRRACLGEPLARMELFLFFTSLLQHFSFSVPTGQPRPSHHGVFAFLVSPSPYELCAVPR

SMILES | IC50 [1, 5] [µM] | inhibition in vivo at 30 mg/kg (Abeta peptide; [8]) [%] | pIC50 (CYP3A4 (CYP3A)) | RLM ([3]; rat liver microsomal data) [µL/min/mg] | HLM ([4]; human liver microsomal data) [µL/min/mg] | RLM ([3]; rat liver microsomes) [µL/min/mg] | HLM ([4]; human liver microsomes) [µL/min/mg] | IC50 (CYP2D6; CYP enzyme inhibition) [µM] | other results
CNc1nc(CC(C)(C)C)cc2c1OC1(CCC1)C[C@@H]2NC[C@@H](O)[C@H](Cc1cc(F)cc(-c2nccs2)c1)NC(=O)COC [Example 847] | 0.044 | ≥ 50 | 6.40 | 201 | 102 | – | – | – | IC50 [2, 6]: 0.01 µM; inhibition in vivo at 30 mg/kg (Abeta peptide; [7]): 5 to 80%; pIC50 (CYP2D6; [9]): 6.10
C#Cc1cc(C[C@H](NC(=O)C(OC)OC)[C@H](O)CN[C@H]2CC3(CCC3)Oc3ncc(CC(C)(C)C)cc32)ccc1F [Example 861] | 0.008 | ≥ 50 | – | 64 | 28 | – | – | – | IC50 [2, 6]: 0.018 µM; pIC50 (CYP2D6; [9]): 5.68
CO[C@H](C)C(=O)N[C@@H](Cc1cc(F)cc(F)c1)[C@H](O)CN[C@H]1CC2(CCC2)Oc2c1cc(CC(C)C)nc2-c1ccncc1 [Example 687] | – | 10 to 80 | ≥ 7.52 | – | – | 91 | 27 | – | pIC50 [1, 10]: 8.10; pIC50 [2, 11]: 7.80; IC50 (CYP2D6; CYP2D6 inhibition): 0.2 µM
COCC(=O)N[C@@H](Cc1ccc(F)c(-c2nccs2)c1)[C@H](O)CN[C@H]1CC2(CCC2)Oc2ncc(CC(C)(C)F)cc21 [Example 743] | – | 10 to 80 | ≥ 7.52 | – | – | 31 | 22 | – | pIC50 [1, 10]: 7.80; pIC50 [2, 11]: 7.43; inhibition in vivo at 30 mg/kg (Abeta peptide; [7]): ≥ 30%; IC50 (CYP2D6; CYP2D6 inhibition): 0.6 µM
C#Cc1cccc(C[C@H](NC(=O)COCC)[C@H](O)CN[C@H]2CC3(CCC3)Oc3ncc(CC(C)(C)C)cc32)c1 [Example 870, N-((1S,2R)-3-(((4′S)-6′-(2,2-dimethylpropyl)-3′,4′-dihydrospiro[cyclobutane-1,2′-pyrano[2,3-b]pyridin]-4′-yl)amino)-1-(3-ethynylbenzyl)-2-hydroxypropyl)-2-ethoxyacetamide] | 0.004 | ≥ 50 | – | – | – | – | – | – | IC50 [2, 6]: 0.011 µM; pIC50 (CYP2D6; [9]): 5.80
CO[C@H](C)C(=O)N[C@@H](Cc1cc(F)cc(F)c1)[C@H](O)CN[C@H]1CC2(CCC2)Oc2c1cc(CC(C)C)nc2-c1cncn1C [Example 710] | – | 10 to 80 | 7.00 | – | – | 39 | 16 | – | pIC50 [1, 10]: 7.59; pIC50 [2, 11]: 7.74; IC50 (CYP2D6; CYP2D6 inhibition): 2.8 µM
C#Cc1cc(C[C@H](NC(=O)COCC)[C@H](O)CN[C@H]2CC3(CCC3)Oc3ncc(CC(C)(C)C)cc32)ccc1F [Example 837] | 0.007 | 10 to 80 | 7.00 | 72 | 29 | – | – | 1.6 | IC50 [2, 12]: 0.023 µM
COCC(=O)N[C@@H](Cc1ccc2c(c1)OCO2)[C@H](O)CN[C@H]1CC2(CCC2)Oc2ncc([C@@H]3CC3(C)C)cc21 [Example 575, N-((1S,2R)-1-(1,3-benzodioxol-5-ylmethyl)-3-(((4′S)-6′-((1R)-2,2-dimethylcyclopropyl)-3′,4′-dihydrospiro[cyclobutane-1,2′-pyrano[2,3-b]pyridin]-4′-yl)amino)-2-hydroxypropyl)-2-methoxyacetamide] | – | 10 to 80 | 7.00 | – | – | 194 | 33 | – | pIC50 [1, 13]: 8.00; pIC50 [2, 14]: 7.80; pIC50 (CYP2D6; 2D6 IC50, CYP2D6 inhibition): 5.82
COCC(=O)N[C@@H](Cc1ccc(-c2nccs2)c(F)c1)[C@H](O)CN[C@H]1CC2(CCC2)Oc2ncc(CC(C)(C)C)cc21 [Example 730] | – | 10 to 80 | ≥ 7.52 | – | – | 74 | 57 | – | pIC50 [1, 10]: 7.41; pIC50 [2, 11]: 7.57; IC50 (CYP2D6; CYP2D6 inhibition): 0.7 µM
CC(=O)N[C@@H](Cc1cc(F)cc(-c2cncs2)c1)[C@H](O)CN[C@H]1CC2(CCC2)Oc2ncc(CC(C)(C)C)cc21 [Example 671, N-((1S,2R)-3-(((4′S)-6′-(2,2-dimethylpropyl)-3′,4′-dihydrospiro[cyclobutane-1,2′-pyrano[2,3-b]pyridin]-4′-yl)amino)-1-(3-fluoro-5-(1,3-thiazol-5-yl)benzyl)-2-hydroxypropyl)acetamide] | – | 10 to 80 | 7.00 | – | – | 48 | 99 | – | pIC50 [1, 10]: 8.30; pIC50 [2, 11]: 7.92; IC50 (CYP2D6; CYP2D6 inhibition): 0.4 µM
COCC(=O)N[C@@H](Cc1cc(F)cc(-c2nccs2)c1)[C@H](O)CNC1CC2(CCC2)Oc2ncc(CC(C)(F)F)cc21 (stereo partly drawn) [Example 764, N-((1S,2R)-3-((6′-(2,2-difluoropropyl)-3′,4′-dihydrospiro[cyclobutane-1,2′-pyrano[2,3-b]pyridin]-4′-yl)amino)-1-(3-fluoro-5-(1,3-thiazol-2-yl)benzyl)-2-hydroxypropyl)-2-methoxyacetamide] | 0.011 | 10 to 80 | 6.52 | 33 | 41 | – | – | 0.7 | IC50 [2, 12]: 0.018 µM
COC(OC)C(=O)N[C@@H](Cc1cccc(-c2nccs2)c1)[C@H](O)CN[C@H]1CC2(CCC2)Oc2ncc(CC(C)C)cc21 [Example 816, N-((1S,2R)-2-hydroxy-3-(((4′S)-6′-(2-methylpropyl)-3′,4′-dihydrospiro[cyclobutane-1,2′-pyrano[2,3-b]pyridin]-4′-yl)amino)-1-(3-(1,3-thiazol-2-yl)benzyl)propyl)-2,2-dimethoxyacetamide] | 0.008 | 10 to 80 | 6.52 | 44 | 46 | – | – | 0.7 | IC50 [2, 12]: 0.024 µM; inhibition in vivo at 30 mg/kg (Abeta peptide; [7]): 5 to 80%
COCC(=O)N[C@@H](Cc1cc(F)cc(F)c1)[C@H](O)CN[C@H]1CC2(CCC2)Oc2c1cc(CC(C)(C)C)nc2-c1cncn1C [Example 597] | – | 10 to 80 | – | – | – | 35 | 22 | – | pIC50 [1, 13]: 7.47; pIC50 [2, 14]: 7.96; pIC50 (CYP2D6; 2D6 IC50, CYP2D6 inhibition): 5.55
COCC(=O)N[C@@H](Cc1cccc(F)c1)[C@H](O)CN[C@H]1CC2(CCC2)Oc2c(-c3ccncc3)cc(CC(C)(C)C)cc21 [Example 535] | – | 10 to 80 | 7.00 | 79 | 49 | – | – | 2.5 | pIC50 [1, 5]: 8.05; pIC50 ([2]; HEK293, HEK cells, read-out: HEK cell assay): 8.22
C#Cc1cc(F)cc(C[C@H](NC(=O)[C@@H](C)OC)[C@H](O)CN[C@H]2CC3(CCC3)Oc3ncc(CC(C)C)cc32)c1 [Example 835] | 0.006 | – | – | 109 | 48 | – | – | 2.1 | IC50 [2, 12]: 0.026 µM; inhibition in vivo at 30 mg/kg (Abeta peptide; [7]): 5 to 80%
CC(C)(C)Cc1cnc2c(c1)[C@@H](NC[C@@H](O)[C@H](Cc1cc(F)cc(-c3nccs3)c1)NC(=O)CF)CC1(CCC1)O2 [Example 878] | 0.004 | – | 6.70 | 65 | 72 | – | – | – | IC50 [2, 6]: 0.022 µM; inhibition in vivo at 30 mg/kg (Abeta peptide; read-out: percent reduction of abeta peptide in the brain of the rat): 5 to 80%
C#Cc1cccc(C[C@H](NC(=O)COC)[C@H](O)CN[C@H]2CC3(CCC3)Oc3ncc(CC(C)(F)F)cc32)c1 [Example 829] | 0.007 | – | 6.70 | 23 | 40 | – | – | 2.3 | IC50 [2, 12]: 0.016 µM; inhibition in vivo at 30 mg/kg (Abeta peptide; [7]): ≥ 30%
C#Cc1cccc(C[C@H](NC(=O)CC)[C@H](O)CN[C@H]2CC3(CCC3)Oc3ncc(CC(C)(C)C)cc32)c1 [Example 873] | 0.003 | ≥ 50 | – | 29 | 35 | – | – | – | IC50 [2, 6]: 0.007 µM; pIC50 (CYP2D6; [9]): 6.10
CC(C)C(=O)N[C@@H](Cc1cc(F)cc(-c2nccs2)c1)[C@H](O)CN[C@H]1CC2(CCC2)Oc2ncc(CC(C)(C)C)cc21 [Example 883] | 0.021 | 10 to 80 | 7.00 | 52 | 54 | – | – | – | IC50 [2, 6]: 0.021 µM
C#Cc1cccc(C[C@H](NC(=O)COC)[C@H](O)CN[C@H]2CC3(CCC3)Oc3ncc(CC(C)C)cc32)c1 [Example 756] | 0.005 | 10 to 80 | – | 49 | 53 | – | – | 1.4 | IC50 [2, 12]: 0.009 µM
CO[C@H](C)C(=O)N[C@@H](Cc1cccc(C#N)c1)[C@H](O)CN[C@H]1CC2(CCC2)Oc2c(-c3ccncc3)cc(CC(C)(C)C)cc21 [Example 638] | – | 10 to 80 | – | – | – | 92 | 32 | – | pIC50 [1, 13]: 7.77; pIC50 [2, 14]: 8.22; pIC50 (CYP2D6; 2D6 IC50, CYP2D6 inhibition): 5.52
COCC(=O)N[C@@H](Cc1cc(-c2nccs2)ccc1F)[C@H](O)CN[C@H]1CC2(CCC2)Oc2ncc(CC(C)(C)C)cc21 [Example 900] | – | 10 to 80 | ≤ 4.57 | – | – | – | – | – | pIC50 (CYP2D6; [9]): ≤ 4.57
